Reference: patent US20090286713A9, “Collagen Receptor I-Domain Binding Modulators” (Biotie Therapies Corporation, priority 2005, published 2009)

Key:
[1] = target: T1, CHO cells expressing α2β1 integrin (Homo sapiens, UniProt P05556+P17301); experiment: Cell adhesion assay, CHO-α2 cells on collagen type I; format: cell-based, Chinese Hamster; settings: for Emax at 100 µM / inhibition at 50 µM: CHO; for EC50: CHO-α2 cells, collagen type I, read-out: EC50, adhesion
T1 sequence (P17301 1-1181): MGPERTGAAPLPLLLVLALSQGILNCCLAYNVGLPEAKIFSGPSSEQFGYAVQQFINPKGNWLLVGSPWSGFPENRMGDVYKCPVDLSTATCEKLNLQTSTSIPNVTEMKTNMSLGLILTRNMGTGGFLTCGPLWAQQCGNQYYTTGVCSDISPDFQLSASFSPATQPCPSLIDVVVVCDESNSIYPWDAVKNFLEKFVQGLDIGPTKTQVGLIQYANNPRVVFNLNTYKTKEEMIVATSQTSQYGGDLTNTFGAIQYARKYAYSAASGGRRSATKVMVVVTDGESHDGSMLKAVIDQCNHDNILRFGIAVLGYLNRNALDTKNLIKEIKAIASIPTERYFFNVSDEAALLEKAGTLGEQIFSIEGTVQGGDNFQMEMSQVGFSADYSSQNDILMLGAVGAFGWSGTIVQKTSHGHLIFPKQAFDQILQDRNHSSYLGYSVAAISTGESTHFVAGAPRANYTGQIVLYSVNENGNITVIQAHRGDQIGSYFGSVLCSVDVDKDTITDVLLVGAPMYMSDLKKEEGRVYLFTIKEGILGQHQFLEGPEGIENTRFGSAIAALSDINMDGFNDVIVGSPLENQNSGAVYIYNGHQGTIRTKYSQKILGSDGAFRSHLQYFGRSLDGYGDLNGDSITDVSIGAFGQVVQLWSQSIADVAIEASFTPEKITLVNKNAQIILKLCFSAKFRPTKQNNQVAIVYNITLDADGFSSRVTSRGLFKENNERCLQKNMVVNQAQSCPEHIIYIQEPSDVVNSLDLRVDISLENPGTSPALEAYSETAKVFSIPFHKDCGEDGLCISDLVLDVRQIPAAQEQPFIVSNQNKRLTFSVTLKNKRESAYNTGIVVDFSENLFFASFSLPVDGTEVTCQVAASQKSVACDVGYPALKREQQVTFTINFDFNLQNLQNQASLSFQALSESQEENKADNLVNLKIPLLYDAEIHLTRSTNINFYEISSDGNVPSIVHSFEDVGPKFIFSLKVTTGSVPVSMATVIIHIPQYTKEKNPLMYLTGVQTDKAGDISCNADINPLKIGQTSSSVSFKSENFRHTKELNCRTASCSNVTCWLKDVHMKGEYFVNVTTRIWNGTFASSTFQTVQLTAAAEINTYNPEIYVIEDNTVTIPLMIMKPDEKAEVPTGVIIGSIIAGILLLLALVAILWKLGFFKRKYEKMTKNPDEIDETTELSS
Procedure: (§1) Chinese Hamster Ovary (CHO) cell clone expressing wild type α2 integrin was used in cell adhesion assay. Cells were suspended in serum free medium containing 0.1 mg/ml cycloheximide (Sigma) and the compounds were preincubated with the cells prior to transfer to the wells. Cells (150000/well) were allowed to attach on collagen type I coated wells (in the presence and absence of inhibitor compounds) for 2 h at +37° C. and after that non-adherent cells were removed. Fresh serum free medium was added and the living cells were detected using a cell viability kit (Roche) according to the manufacturers protocol.
(§2) For this purpose CHO cells were transfected to express α2β1 integrin on their surface as their only collagen receptor.

[2] = target: T2, CHO cells expressing α2β1 integrin (Homo sapiens, UniProt P17301); experiment: as above; format: cell-based, Chinese Hamster; settings: FIG. 10A, 10B
T2 sequence (P17301 1-1181): T1 sequence (P17301 1-1181)
Procedure: as §1, §2

[3] = test system: CHO expressing mutated α2β1 integrin (tyrosine 285, leucine 286, leucine 296); experiment: Cell adhesion assay with CHO cells expressing mutated α2β1 integrin; format: cell-based, Chinese Hamster; settings: data not shown
[4] = test system: platelet aggregation in whole blood; experiment: Platelet function analyzer PFA-100 closure time of whole blood; format: cell-based; settings: PFA-100, collagen plus epinephrine; FIG. 12
Procedure: Mean and standard deviations were calculated for each treatment.

[5] = test system: PC-3 cells; experiment: Cell invasion assay, PC-3 cells through Matrigel; format: cell-based; settings: Homo sapiens, 72 hours
Procedure: Experimental procedure. […] Inserts were stored at −20° C. […] The remaining media was aspirated. […] Inserts were allowed to dry. Fixed invaded cells were calculated under the microscope. Invasion % was calculated as a comparison to the control.

[6] = target: T3, α2 I-domain (Homo sapiens, UniProt P17301); experiment: Solid-phase binding assay, α2 I-domain binding to type I collagen; settings: for inhibition of α2 I-domain binding to type I collagen (in words): FIG. 6B, 7A, 8A
T3 construct: corresponded to amino acids 124-339 of the whole α2 integrin; made in house; host or cells: E. coli BL21 (pGEX-2T)
T3 sequence (P17301 153-368): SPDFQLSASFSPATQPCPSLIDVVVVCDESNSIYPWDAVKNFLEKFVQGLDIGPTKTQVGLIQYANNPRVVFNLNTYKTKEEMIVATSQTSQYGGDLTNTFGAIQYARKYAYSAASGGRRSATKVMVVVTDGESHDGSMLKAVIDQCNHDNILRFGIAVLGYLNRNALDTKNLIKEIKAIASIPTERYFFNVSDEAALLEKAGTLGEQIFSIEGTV
Procedure: (§3) Solid-phase binding assay for α1-domains—The coating of a 96-well high binding microtiter plate (Nune) was done by exposure to 0.1 ml of PBS containing 5 μg/cm2 (15 μg/ml) collagens or 20 μg/ml triple-helical peptides overnight at +4° C. Blank wells were coated with 1:1 solution of 0.1 ml Delfia® Diluent II (Wallac) and PBS. Residual protein absorption sites on all wells were blocked with 1:1 solution of 0.1 ml Delfia® Diluent II (Wallac) and PBS. Recombinant proteins (αI-GST) were added to the coated wells at a desired concentration in Delfia® Assay Buffer and incubated for 1 h at room temperature. Europium-labelled anti-GST antibody (Wallac) was then added (typically 1:1000), and the mixture was incubated for 1 h at room temperature. All incubations mentioned above were done in the presence of 2 mM MgCl2. Delfia® enhancement solution (Wallac) was added to each well and the Europium signal was measured by time-resolved fluorometry (Victor2 multilabel counter, Wallac). At least three parallel wells were analyzed. In some cases some what modified solid-phase assay was used and it was performed according Tulla et al, 2001. It uses anti-GST and Europium-labelled protein G instead of Europium-labelled anti-GST antibody.
(§4) The tetracyclic Streptomyces compounds synthesised in Example 1, where screened for inhibition of collagen binding to α1 and α2 I-domains, using the α I-domain assay described in Example 4. […] L3015 could inhibit the binding of both α1I and α2 I-domains to type I and type IV collagen (FIG. 6B).
Based on the utilization of 3D model other compounds from the polyketide family were tested. The compounds were tested in the europium-labelled anti-GST assay described in Example 4. Tetracyclic polyketides L3007, L3008, and L3009 could inhibit α2 I-domain binding to type I collagen (FIG. 8A).

[7] = target: T4, α1 I-domain (Homo sapiens, UniProt P56199); experiment: Solid-phase binding assay, α1 I-domain binding to type I collagen; settings: FIG. 6B, 7A
T4 construct: corresponding to amino acids 123-338 of the whole α1 integrin; made in house; host or cells: E. coli BL21 (pGEX-4T-3)
T4 sequence (P56199 151-366): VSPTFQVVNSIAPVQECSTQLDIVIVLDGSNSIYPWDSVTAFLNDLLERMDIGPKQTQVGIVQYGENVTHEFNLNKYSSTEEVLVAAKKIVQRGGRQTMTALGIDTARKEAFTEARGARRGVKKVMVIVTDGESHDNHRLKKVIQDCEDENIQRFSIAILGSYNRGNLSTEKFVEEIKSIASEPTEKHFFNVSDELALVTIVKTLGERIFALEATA
Procedure: as §3, §4
Furthermore α1I and α2 I-domain binding to collagen I in the presence of lovastatin was tested in the europium-labelled anti-GST assay described in Example 4. Lovastatin is an allosteric inhibitor of leukocyte integrin α I-domains (e.g. αL I-domain), and the binding site of lovastatin represents an optional binding site for possible modulators. […] These biological tests gave further evidence that collagen receptor α I-domains are inhibited by direct blocking of the MIDAS surface by tetracyclic polyketide.

[8] = target: T3, α2 I-domain; experiment: Solid-phase binding assay, α2 I-domain binding to type IV collagen; settings: FIG. 6B
Procedure: as §3, with “antibody. […]” for “antibody.”

[9] = target: T4, α1 I-domain; experiment: Solid-phase binding assay, α1 I-domain binding to type IV collagen; settings: FIG. 6B
Procedure: as §3, with “antibody. […]” for “antibody.”

[10] = target: T3, α2 I-domain; experiment: α2 I-domain binding to RKK-peptide (europium-labelled protein G assay); settings: FIG. 7B
Procedure: as §3
RKK-peptides are known to bind to MIDAS of α2 I-domain (Ivaska et al., 1999). […]

Compound | Emax at 100 µM [1] | EC50 [1] | also measured
CN(C)CCN(c1ccc(N(C)C)cc1)S(=O)(=O)c1cccc(-c2ccc(F)cc2)c1 [Compound 354] | 89% | 29 µM | 
CN(C)c1ccc(N(CCn2ccnc2)S(=O)(=O)c2cccc(-c3ccc(F)cc3)c2)cc1 [Compound 358] | 74% | 30 µM | 
CN(C)c1ccc(N(CCO)S(=O)(=O)c2cccc(-c3ccc(F)cc3)c2)cc1 [Compound 359] | 67% | 39 µM | 
CC(=O)c1ccc(NS(=O)(=O)c2cccc(-c3ccc(F)cc3)c2)cc1 [Compound 383] |  | 39 µM | 
O=C(c1ccccc1)c1ccc(NS(=O)(=O)c2cccc(-c3ccc(F)cc3)c2)cc1 [Compound 384] | 81% | 12 µM | 
O=S(=O)(Nc1cccc(-c2ccc(F)cc2)c1)c1ccc(Cl)cc1 [Compound 398] |  | 16 µM | inhibition at 50 µM [1]: 83%
O=S(=O)(Nc1cccc(-c2ccc(F)cc2)c1)c1ccc(Cl)cc1Cl [Compound 403] | 86% | 37 µM | 
O=C(c1ccccc1)c1ccc(NS(=O)(=O)c2ccc(Cl)cc2Cl)cc1 [Compound 416] | 79% | 42 µM | inhibition at 50 µM [1]: 44%
CN(c1ccc(NC(=O)N2CCNC2=O)cc1)S(=O)(=O)c1cccc(-c2ccc(F)cc2)c1 [Compound 430] | 59% | 14 µM | 
O=C(c1ccccc1)c1cccc(NS(=O)(=O)c2cccc(-c3ccc(F)cc3)c2)c1 [Compound 432] | 79% | 15 µM | 
O=C(c1ccccc1)c1ccc([N-]S(=O)(=O)c2cccc(-c3ccc(F)cc3)c2)cc1.[Na+] [Compound 434] |  | 9.1 µM | Emax at 100 µM ([1]; at 100 uM): 78%; inhibition of cell adhesion to collagen type I (in words) [2]: potent inhibitor; effect of mutation of tyrosine 285, leucine 286, leucine 296 on the inhibitory effect in adhesion of CHO cells expressing α2β1 to collagen I [3]: significantly decreased; closure time of the blood [4]: increase the closure time
O=[N+]([O-])c1ccc(NS(=O)(=O)c2cccc(-c3ccc(F)cc3)c2)cc1 [Compound 440] | 78% | 8.7 µM | 
Cn1cccc1C(=O)Nc1ccc(NS(=O)(=O)c2cccc(-c3ccc(F)cc3)c2)cc1 [Compound 442] | 22% |  | 
N#Cc1ccc(NS(=O)(=O)c2cccc(-c3ccc(F)cc3)c2)cc1 [Compound 448] | 74% | 38 µM | 
O=S(=O)(Nc1ccc(C(O)c2ccccc2)cc1)c1cccc(-c2ccc(F)cc2)c1 (centres unmarked) [Compound 452] |  | 9.4 µM | inhibition at 50 µM [1]: 83%; EC50 [5]: 0.8 µM
CCc1cc(O)c2c(O)c3c(c(O)c2c1C(=O)OC)C(=O)c1cccc(O)c1C3=O [Compound L3008, methyl 2-ethyl-4,5,7,12-tetrahydroxy-6,11-dioxonaphthacenecarboxylate] |  |  | inhibition of α2 I-domain binding to type I collagen (in words) [6]: could inhibit; effect of mutation of tyrosine 285, leucine 286, leucine 296 on the inhibitory effect in adhesion of CHO cells expressing α2β1 to collagen I [3]: significantly decreased
CCc1cc(O)c2c(O)c3c(cc2c1C(=O)OC)C(=O)c1cccc(O)c1C3=O [Compound L3015, methyl 2-ethyl-4,5,7-trihydroxy-6,11 dioxonaphthacenecarboxylate] |  |  | inhibition of α2 I-domain binding to type I collagen (in words) [6]: could inhibit; inhibition at 30 µM ([6]; at 0.03 mM concentration, dose dependent, FIG. 6A): ~50%; inhibition of α1 I-domain binding to type I collagen (in words) [7]: could inhibit; inhibition of α2 I-domain binding to type IV collagen (in words) [8]: could inhibit; inhibition of α1 I-domain binding to type IV collagen (in words) [9]: could inhibit; displacement of RKK peptide at MIDAS [10]: can displace
CC[C@H](C)C(=O)O[C@H]1C[C@@H](C)C=C2C=C[C@H](C)[C@H](CC[C@@H]3C[C@@H](O)CC(=O)O3)[C@H]21 [lovastatin, reference compound] |  |  | inhibition of α2 I-domain binding to type I collagen (in words) [6]: no effect; inhibition of α1 I-domain binding to type I collagen (in words) [7]: no effect
methyl 2-ethyl-2,5,7,12-tetrahydroxy-4,6,11-trioxo-1,2,3-trihydronaphthacene-carboxylate [Compound L3007] |  |  | inhibition of α2 I-domain binding to type I collagen (in words) [6]: could inhibit
